± gives the standard deviation of the averaged measurements.
How the values were obtained:
Details in all cases: 72 h
Calu-3 [1] = assay: relative viability EC50 (midpoint between 100% and the lowest measured viability); higher = less toxic
Vero E6 [2] = assay: as above
U2OS [3] = assay: as above
HepG2 [4] = assay: as above
Caco-2 [5] = assay: as above
Calu-3 [6] = assay: drug sensitivity score (DSS) for viability; higher = more toxic; extreme values may be limits of the assay
Vero E6 [7] = assay: as above
U2OS [8] = assay: as above
HepG2 [9] = assay: as above
Caco-2 [10] = assay: as above
Calu-3 [11] = assay: cell viability relative to DMSO; higher = less toxic
Vero E6 [12] = assay: as above
U2OS [13] = assay: as above
HepG2 [14] = assay: as above
Caco-2 [15] = assay: as above

| SMILES | relative viability EC50 (Calu-3 [1]) [µM] | relative viability EC50 (Vero E6 [2]) [µM] | relative viability EC50 (U2OS [3]) [µM] | relative viability EC50 (HepG2 [4]) [µM] | relative viability EC50 (Caco-2 [5]) [µM] | drug sensitivity score (Calu-3 [6]) | drug sensitivity score (Vero E6 [7]) | drug sensitivity score (U2OS [8]) | drug sensitivity score (HepG2 [9]) | drug sensitivity score (Caco-2 [10]) | cell viability (Calu-3 [11]; 1 nM) [%] | cell viability (Calu-3 [11]; 10 nM) [%] | cell viability (Calu-3 [11]; 100 nM) [%] | cell viability (Calu-3 [11]; 1000 nM) [%] | cell viability (Calu-3 [11]; 10000 nM) [%] | cell viability (Vero E6 [12]; 1 nM) [%] | cell viability (Vero E6 [12]; 10 nM) [%] | cell viability (Vero E6 [12]; 100 nM) [%] | cell viability (Vero E6 [12]; 1000 nM) [%] | cell viability (Vero E6 [12]; 10000 nM) [%] | cell viability (U2OS [13]; 1 nM) [%] | cell viability (U2OS [13]; 10 nM) [%] | cell viability (U2OS [13]; 100 nM) [%] | cell viability (U2OS [13]; 1000 nM) [%] | cell viability (U2OS [13]; 10000 nM) [%] | cell viability (HepG2 [14]; 1 nM) [%] | cell viability (HepG2 [14]; 10 nM) [%] | cell viability (HepG2 [14]; 100 nM) [%] | cell viability (HepG2 [14]; 1000 nM) [%] | cell viability (HepG2 [14]; 10000 nM) [%] | cell viability (Caco-2 [15]; 1 nM) [%] | cell viability (Caco-2 [15]; 10 nM) [%] | cell viability (Caco-2 [15]; 100 nM) [%] | cell viability (Caco-2 [15]; 1000 nM) [%] | cell viability (Caco-2 [15]; 10000 nM) [%] |
| --- | --- | --- | --- | --- | --- | --- | --- | --- | --- | --- | --- | --- | --- | --- | --- | --- | --- | --- | --- | --- | --- | --- | --- | --- | --- | --- | --- | --- | --- | --- | --- | --- | --- | --- | --- |
| COc1cc(O)c(C(=O)c2ccccc2)cc1S(=O)(=O)O [sulisobenzone] | > 10 | > 10 | > 10 | > 10 | > 10 | 0 | 0 | 0 | 0 | 0 | 100 | 106 | 98.1 | 109 | 102 | 103 | 99.1 | 95.7 | 95.9 | 89.9 | 103 | 94.8 | 98.4 | 94.6 | 98.7 | 93.3 | 101 | 99.8 | 99.3 | 98.3 | 104 | 96.3 | 102 | 91.8 | 103 |
| COc1cc(C2Oc3cc([C@H]4Oc5cc(O)cc(O)c5C(=O)[C@@H]4O)ccc3OC2CO)ccc1O (stereo not given in full) [silibinin] | > 10 | > 10 | > 10 | > 10 | > 10 | 0 | 0 | 0 | 0 | 0 | 99.9 | 108 | 92.6 | 98.6 | 99.3 | 99.1 | 106 | 101 | 103 | 99.2 | 96 | 103 | 95.8 | 98.9 | 93.6 | 100 | 97.8 | 101 | 91.1 | 93.1 | 103 | 102 | 93 | 104 | 100 |
| CCn1c(-c2nonc2N)nc2cncc(CNC3CCNCC3)c21 | > 10 | > 10 | > 10 | > 10 | > 10 | 0 | 0 | 1.3 | 3.9 | 0.4 | 94 | 103 | 102 | 120 | 114 | 93.3 | 104 | 101 | 93.8 | 94.1 | 93.9 | 98.2 | 96.7 | 97.3 | 76.3 | 94.8 | 104 | 89.1 | 80.6 | 79.7 | 93.6 | 95.1 | 105 | 105 | 80.4 |
| Nc1nc(O)c2ncn(CCC(CO)CO)c2n1 [penciclovir] | > 10 | > 10 | > 10 | > 10 | > 10 | 0 | 0 | 0 | 0 | 0 | 102 | 90.8 | 92 | 94.1 | 99.5 | 100 | 94.3 | 90 | 95.1 | 102 | 99.3 | 95.9 | 93.9 | 101 | 104 | 89.8 | 94.3 | 101 | 94.6 | 102 | 98.7 | 109 | 102 | 103 | 102 |
| C[C@H]1C[C@H]2[C@@H]3CCC4=CC(=O)C=C[C@]4(C)[C@@]3(F)[C@@H](O)C[C@]2(C)[C@@]1(O)C(=O)CO [betamethasone] | > 10 | > 10 | > 10 | > 10 | > 10 | 0 | 0.1 ± 0.14 | 0 | 1.3 ± 1.7 | 0.25 ± 0.35 | 106 ± 9.1 | 107 ± 7.4 | 95.05 ± 0.49 | 102 ± 3.6 | 95 ± 3.5 | 97 ± 4.5 | 91.7 ± 5.5 | 94.5 ± 8.6 | 95.4 ± 4.1 | 92.1 ± 6.5 | 99.6 ± 3.8 | 101 ± 1.3 | 94.5 ± 2.9 | 97.5 ± 2.7 | 92.4 ± 1.4 | 101 ± 4.1 | 97 ± 4.6 | 99.4 ± 11 | 90.2 ± 15 | 89.7 ± 4.4 | 101 ± 2.2 | 92.85 ± 0.49 | 84.5 ± 5.2 | 99.1 ± 5.8 | 92.9 ± 12 |
| CC(C)NNC(=O)c1ccncc1 [iproniazid] | > 10 | > 10 | > 10 | > 10 | > 10 | 0 | 0 | 0 | 0 | 0 | 93.2 | 97.9 | 94.6 | 107 | 99.6 | 100 | 95.1 | 101 | 90.8 | 108 | 96.6 | 98.9 | 97.4 | 103 | 104 | 108 | 96.4 | 108 | 104 | 105 | 93.6 | 95.9 | 98.9 | 90.8 | 103 |
| CN(C)CCOC(C)(c1ccccc1)c1ccccn1 (stereo not given) [doxylamine] | > 10 | > 10 | > 10 | > 10 | > 10 | 0 | 0 | 0 | 0 | 0 | 98.6 | 105 | 98.6 | 106 | 108 | 99.5 | 102 | 100 | 100 | 99.6 | 104 | 100 | 103 | 98.4 | 101 | 102 | 101 | 101 | 106 | 99.8 | 106 | 97.6 | 98.6 | 98.1 | 104 |
